Reference: ChEMBL document CHEMBL1131693, “Synthesis and methemoglobin toxicity of the amides of 6/7 mono or disubstituted quinolone” (1999)

Key:
Canis lupus familiaris = species: Canis lupus familiaris; test: In vitro activity against canine methemoglobin reductase at 33 uM; set-up: unit not given here
Canis familiaris [1] = species: Canis familiaris; test: In vitro activity on methemoglobin formation at 5 mM concentration in blood from a normal Beagle dog; format: functional, Canis lupus familiaris
Canis familiaris [2] = species: Canis familiaris; test: In vitro activity on methemoglobin formation at 1 mM concentration in blood from a normal Beagle dog; Nil; format: functional
Canis familiaris [3] = species: Canis familiaris; test: In vitro activity on methemoglobin formation at 5 mM concentration in blood from a normal Beagle dog; Nil; format: functional; conditions: Canis lupus familiaris
Canis familiaris [4] = species: Canis familiaris; test: In vitro activity on methemoglobin formation at 1 mM concentration in blood from a normal Beagle dog; format: functional, Canis lupus familiaris

Compound | Activity (Canis lupus familiaris) | Methemoglobin (Canis familiaris [1]) | Methemoglobin (Canis familiaris [2]; Canis lupus familiaris) | Methemoglobin (Canis familiaris [3]) | Methemoglobin (Canis familiaris [2]) | Methemoglobin (Canis familiaris [4])
CCCCCCCCNC(=O)c1cnc2ccc([N+](=O)[O-])cc2c1O | 0.064 | 7.7% | Nil | – | – | –
O=C(NC1CCCCC1)c1cnc2cc(Cl)c(F)cc2c1O | 0.064 | – | Nil | Nil | – | –
O=C(NC1CCCCC1)c1cnc2ccc([N+](=O)[O-])cc2c1O | 0.064 | 6.8% | Nil | – | – | –
CN1CCN(C(=O)c2cnc3ccc(F)cc3c2O)CC1 | 0.064 | 2% | Nil | – | – | –
CCCCCCCCNC(=O)c1cnc2cc(Cl)c(F)cc2c1O | 0.064 | 29.3% | – | – | 1.7% | –
CCN(CC)CCCC(C)NC(=O)c1cnc2ccc(F)cc2c1O (stereo unspecified) | 0.064 | 22.4% | – | – | – | 1.7%
CN1CCN(C(=O)c2cnc3cc(Cl)c(F)cc3c2O)CC1 | 0.064 | – | Nil | Nil | – | –
O=C(NC1CCCCC1)c1cnc2ccc(F)cc2c1O | 0.064 | 1.5% | Nil | – | – | –

Further lines, with some results ahead:

Activity (Canis lupus familiaris) | Compound | Methemoglobin (Canis familiaris [1]) | Methemoglobin (Canis familiaris [2]; Canis lupus familiaris) | Methemoglobin (Canis familiaris [3]) | Methemoglobin (Canis familiaris [2]) | Methemoglobin (Canis familiaris [4])
0.064 | CCN(CC)CCCC(C)NC(=O)c1cnc2ccc([N+](=O)[O-])cc2c1O (stereo unspecified) | 5.17% | Nil | – | – | –
0.064 | CN1CCN(C(=O)c2cnc3ccc([N+](=O)[O-])cc3c2O)CC1 | 8.6% | Nil | – | – | –
0.064 | CCCCCCCCNC(=O)c1cnc2ccc(F)cc2c1O | 18.9% | Nil | – | – | –
0.064 | CCN(CC)CCCC(C)NC(=O)c1cnc2cc(Cl)c(F)cc2c1O (stereo unspecified) | 16.9% | Nil | – | – | –
